“Also recorded” adds a separate entry of the source. Where two headings read alike, the source gives them in different places.
How the values were obtained:
[1] = target: mushroom tyrosinase (DOPA oxidase activity) (Agaricus bisporus, UniProt C7FF04); test: DOPA oxidase inhibiting activity by spectrophotometry (mushroom tyrosinase assay); assay type: biochemical; details: FIG. 12
Method: (§1) Mushroom (Agaricus bisporus) tyrosinase (SIGMA-ALDRICH, T3824) has both DHICA oxidase and DOPA oxidase activity ([…] et al, Pigment Cell Res., vol. 12(2), p: 118-25, 1999).
The effect of different spider venoms on the DOPA oxidase activity was measured spectrophotometrically. The DOPA oxidase activity was determined using L-DOPA as substrate at 0.2 mM. The amount of DOPA chrome (red pigment) formed was measured against blank at 475 nm. The percentage of DOPA oxidase inhibition was obtained from: Inhibition percentage=[…]
With: • A: Absorbance at 475 nm of the reaction medium+inhibitor sample solution with enzyme • B: Absorbance at 475 nm of the reaction medium+inhibitor sample solution without enzyme (blank) • C: Absorbance at 475 nm of the reaction medium enzyme without inhibitor sample solution • D: Absorbance at 475 nm of the reaction medium without both enzyme and inhibitor sample solution […]
For the DOPA activity assay: 500 μL of the L-DOPA solution at 0.4 mM is mixed with different volumes according to the different natural inhibitors at 10 mg/mL, and 5 μL of the mushroom tyrosinase solution (added last to initiate the enzymatic reaction and must be kept in ice). […] The absorbance is measured at 475 nm every minute for 15 min using a UV-VIS spectrophotometer BIOMATE 5®. […]

B16F10 cells [2] = test: Measurement of melanin content in B16F10 melanoma cells (melanogenesis assay); assay type: cell-based, murine; details: for IC50: read-out: IC50 melanogenesis (melanin released in the medium)
Method: (§2) B16F10 were obtained from the American Type Culture Collection (ATCC CRL-6475, Manassas, Va., USA). Cells were cultured in Dulbecco's Modified Eagle Medium (DMEM) supplemented by 10% heat-inactivated foetal bovine serum (FBS, LONZA ltd., Basel, Switzerland) and penicillin/streptomycin (50 μg/ml) in a humidified atmosphere containing 5% CO2 at 37° C.
Determination of the extracellular melanin is considered as an index of melanogenesis. B16F10 cells were cultured in 24-well plate (5.10^4 cells/well) in a phenol red free medium and stimulated with 100 nM of α-MSH. […] To quantify the amount of melanin released in the medium, the absorbance of 200 μl of supernatant was read at 405 nm. The values were normalized by the measurement of total protein level present in each well.
Cells were washed with PBS1X and dissolved in 200 μl of NaOH 1N for 1 h at 60° C. The lysate was then centrifuged and the protein content determined by the Folin Lowry method, using the DC protein Assay kit from BIO-RAD (Marnes-la-Coquette, France). The absorbance is read at […].
B16F10 are murine melanoma cells, a cell line able to produce melanin and considered as an accurate model to assess melanogenesis inhibition. Cells were seeded at 5.10^4 cells/well in a P24 well plate and stimulated by 100 nM of α-MSH, the melanin-stimulating hormone. […] 48 h later, according to […] & EBERLE (Analytical Biochemistry, vol. 159(1), p: 191-7, 1986), the amount of melanin released in the medium was spectrophotometrically measured at 405 nm and normalised to the protein content.

TRP1 = test: Western blot analysis of TRP1 expression; assay type: cell-based, murine; details: α-MSH stimulated B16F10 cells, FIG. 16
Method: Cells were seeded at 1.10^6 cells/dish and cultivated in n-dish as previously described. After trypsination, the pelled were homogenized in a solution containing Sodium Dodecyl Sulphate (SDS) and were boiled 5 min at 96° C. to denature the proteins. Protein extracts were separated via a 10% SDS-PAGE for 1 h at 200 V and transferred onto a polyvinylidene difluoride membrane (GE healthcare Europe, Vélizy-villacoublay, France). The membranes were blocked overnight with 5% non-fat skim milk in a Tris-buffered saline solution containing 0.1% Tween. Membranes were incubated for 1 h at 37° C. with specific antibody against tyrosinase, TRP1 or MITF (C-19; G-17; N-15, 1:200 for Tyrosinase and TRP1 and 1:100 for MITF, Santa Cruz, Heidelberg, Germany) and actin as a control (C-11, 1:200, Santa Cruz). Membranes were incubated with secondary antibody coupled to horseradish peroxidase (HRP) for 2 h at room temperature (anti-goat 1:2500 for tyrosinase, TRP1 and MITF (ab 97120, Abcam, Paris, France) and anti-rabbit 1:2500 for actin (NA 934V, GE Healthcare)). […] Pre-stained protein markers were used for molecular weight.
To explore the mechanism of action of Argiotoxin in melanogenesis processes, we assess its ability to regulate the protein expression of two enzymes, the tyrosinase and TRP1 which is implicated in the biosynthesis of black/brown pigments specifically. […]

[3] = system: mushroom tyrosinase (DHICA oxidase activity); test: DHICA oxidase-inhibiting activity by MBTH assay; assay type: biochemical, Agaricus bisporus; details: DHICA substrate 0.25 mM
Method: as §1
DHICA is used as substrate at 0.25 mM. MBTH was obtained from Alfa Aesar and DHICA was prepared according to […] & ITO, (Anal. Biochem., vol. 170(2), p: 335-40, 1988). Here, the MBTH method was used. This method consists to visualize the production of hydrazone-quinone adduct by spectrophotometry. The principle is that MBTH captures the indole-quinone which was generated by the oxidation of dihydroxyindole compounds. DHICA is converted to indole-5,6-quinone-2-carboxylic acid by the DHICA oxidase activity of mushroom tyrosinase, the indole product is trapped by MBTH and the complex formation can be detected at 492 nm (OLIVARES et al, Biochem. J., vol. 354, p: 131-139, 2001). • c) The DHICA oxidase inhibiting activity using mushroom tyrosinase was assayed in vitro. The procedure is the same as described by WINDER & HARRIS (Eur. J. Biochem., vol. 198(2), p: 317-26, 1991) for DOPA oxidase with minor modifications. Purification of the fractions
The experimental conditions are the same as previously mentioned. DHICA was used as substrate at 0.25 mM.

tyrosinase = assay type: cell-based, murine; details: α-MSH stimulated B16F10 cells, FIG. 16
Method: Western blot analyses were performed on B16F10 cells treated as previously described.

B16F10 cells [4] = test: LDH cell-based assay (cytotoxicity); set-up: species or system murine; details: 42.1 μM
B16F10 cells [5] = test: Cell viability assay (MTT); assay type: cell-based, murine; details: 42.1 μM
Method: as §2
The evaluation of B16F10 cells survival relies on the reduction of the tetrazolium ring of water soluble MTT (3-[4,5-dimethylthiazol-2-yl]-2,5-diphenyltetrazolium bromide; Sigma Aldrich) into insoluble purple formazan crystals by the mitochondrial succinate dehydrogenase enzyme. The production of formazan directly reflects the number of living […] cells. B16F10 cells were seeded at 25000 per well in a 96-well plate and incubated in standard culture condition. […] Then, the supernatant was removed and replace by 50 μl of 0.5 mg/ml of MTT solution. The cells were exposed to MTT for 2 h. Finally, each well was washed by PBS1X and the crystals contained in wells are solubilized by adding 100 μl of DMSO. After briefly shaked the plate, the absorbance is measured at 600 nm.

mushroom tyrosinase (DOPA oxidase activity), sequence (C7FF04 1-392): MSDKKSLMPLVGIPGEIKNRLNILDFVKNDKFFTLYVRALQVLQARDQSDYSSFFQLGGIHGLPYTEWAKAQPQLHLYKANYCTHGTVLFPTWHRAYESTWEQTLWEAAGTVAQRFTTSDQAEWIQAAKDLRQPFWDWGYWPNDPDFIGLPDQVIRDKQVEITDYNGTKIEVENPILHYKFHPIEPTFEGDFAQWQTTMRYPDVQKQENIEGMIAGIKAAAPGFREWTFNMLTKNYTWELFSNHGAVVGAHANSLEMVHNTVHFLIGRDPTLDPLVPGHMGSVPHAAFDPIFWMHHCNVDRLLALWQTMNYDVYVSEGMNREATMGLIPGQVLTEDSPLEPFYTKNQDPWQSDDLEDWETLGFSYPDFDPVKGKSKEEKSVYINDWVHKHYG
mushroom tyrosinase (DOPA oxidase activity), sequence (G1K3P4 1-150 partner): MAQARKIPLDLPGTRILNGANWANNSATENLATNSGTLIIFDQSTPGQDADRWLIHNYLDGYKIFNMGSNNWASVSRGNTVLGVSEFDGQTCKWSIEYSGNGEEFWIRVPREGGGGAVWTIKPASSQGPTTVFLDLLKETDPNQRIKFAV

Compound | IC50 [1] [µM] | type of inhibition of DOPA oxidase activity ([1]; suggested from dose-response) | IC50 (B16F10 cells [2]; B16F10, 100 nM α-MSH, 48 h treatment) [µM] | expression of TRP1 protein (TRP1) | inhibition of DHICA oxidase activity [3] | expression of tyrosinase protein (tyrosinase) | cytotoxicity (LDH) (B16F10 cells [4]) | fold higher activity on the cellular assay compared with DHPA (B16F10 cells [2]; B16F10 melanogenesis) [fold] | IC50 (B16F10 cells [2]; Mus musculus, B16-F10, 48 h) [µM] | cell death (MTT) (B16F10 cells [5]) | IC50 (B16F10 cells [2]; Mus musculus, B16-F10, B16F10, 100 nM α-MSH, 48 h treatment) [µM]
O=C(O)Cc1ccc(O)cc1O [2,4-DHPAA] | ~6000 | competitive inhibitor | ~5 |  |  |  |  |  |  |  | 
N=C(N)NCCC[C@H](N)C(=O)NCCCNCCCNCCCCCNC(=O)[C@H](CC(N)=O)NC(=O)Cc1ccc(O)cc1O [Argiotoxin, Argiotoxin-636] |  |  |  | significant inhibition | dose-dependent inhibition is visible up to 100 μM; also recorded: dose-dependent manner up to 75 μM | significant inhibition | neither cell death nor cytotoxicity | 100 | ~0.01 | neither cell death nor cytotoxicity | 
O=c1cc(CO)occ1O [Kojic acid, Kojic Acid, reference compound] |  |  |  | faintly decreases |  |  |  |  |  |  | ~5
